From article PMC10461224, “Development of an Affinity-Based Probe to Profile Endogenous Human Adenosine A3 Receptor Expression” (Journal of Medicinal Chemistry, 2023)

Legend:
hA3AR [1] = target: T1, hA3AR (Homo sapiens, UniProt P0DMS8); experiment: Confocal microscopy labeling on CHO cells, click to TAMRA-N3; type: cell-based; conditions: 50 nM, 60 min, versus vehicle, PSB-11 pre-incubation and CHO-K1
T1 construct: expressed in transfected cells; host or cells: CHO cells (CHOhA3AR), gift of Prof; K.N. Klotz, University of Würzburg; used as membrane fractions or live cells
T1 sequence (P0DMS8 1-318): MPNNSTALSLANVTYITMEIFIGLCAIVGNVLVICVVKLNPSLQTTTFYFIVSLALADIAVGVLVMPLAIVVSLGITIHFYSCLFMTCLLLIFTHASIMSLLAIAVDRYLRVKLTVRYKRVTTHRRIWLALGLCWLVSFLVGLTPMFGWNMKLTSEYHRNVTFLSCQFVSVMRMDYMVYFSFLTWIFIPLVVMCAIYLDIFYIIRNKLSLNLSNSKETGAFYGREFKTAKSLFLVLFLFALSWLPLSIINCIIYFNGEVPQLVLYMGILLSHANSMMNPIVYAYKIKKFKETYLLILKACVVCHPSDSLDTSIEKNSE
Description: CHOhA3AR and CHO-K1 cells were cultured in a 96-well plate. Upon reaching a confluency of about 90%, the medium was replaced by medium containing PSB-11 (final concentration: 1 μM) or 1% DMSO (control) and the cells were pre-incubated for 30 min (37 °C and 5% CO2). The medium was then replaced with medium containing 9 (final concentration: 50 nM) or 1% DMSO (vehicle), and the cells were incubated for 60 min (37 °C and 5% CO2). The cells were washed with PBS to remove unbound probe and afterward fixed using a 4% PFA in 10% formalin solution (15 min, rt). The remaining fixative was removed by washing with PBS and subsequently with 20 mM glycine in PBS. The cells were permeabilized by incubation in 0.1% saponin in PBS (10 min, rt). Remaining saponin was removed by a PBS wash, and the cells were stored at 4 °C until further usage. At the day of imaging, PBS was removed and the cells were incubated for 1 h in freshly prepared click mix (100 μL 100 mM CuSO4 in MilliQ, 100 μL 1 M NaAsc in MilliQ, 100 μL […] in MilliQ, 9.66 mL HEPES pH 7.4, and 40 μL 1 mM TAMRA-N3 in DMSO, added in the respective order). […]
CellProfiler (version 2.2.0) was used to create a binary image of the DAPI channel and to propagate the cytoplasmic area based on the DAPI binary. An overlay of the binary cytoplasm/TAMRA channel was generated to quantify per segmented pixel the TAMRA intensity. […]

hA3AR [2] = target: T1, hA3AR; experiment: SDS-PAGE labeling in CHO membrane fractions, click to Cy5-N3; type: binding; conditions: 50 nM probe, compared with 5 and 13
Description: Membrane fractions were prepared as mentioned above and diluted to a concentration of 1 μg/μL. 18 μL of membrane fractions from either CHOhA3AR or CHO-K1 cells were taken. 1 μL of competing ligand (PSB-11, unless noted otherwise) was added (final concentration: 1 μM in 0.05% DMSO in assay buffer), and the samples were shaken for 30 min at rt. 1 μL of affinity-based probe was then added (final concentration: 50 nM in 0.05% DMSO in assay buffer, unless noted otherwise), and the samples were shaken for 1 h at rt. Deglycosylation was initiated by addition of 0.5 μL of PNGaseF (5 U), 0.5 μL of MilliQ water for the control samples, and the samples were shaken for 1 h at rt. The click mix was freshly prepared by adding together 5 parts 100 mM CuSO4 in MilliQ, 3 parts 1 M sodium ascorbate (NaAsc) in MilliQ, 1 part 100 mM Tris(3-hydroxypropyltriazolylmethyl)amine (THPTA) in MilliQ, and 1 part 100 μM Cy5-N3 in DMSO. […] In-gel fluorescence was measured on a Bio-Rad Universal Hood III using Cy3 (605/50 filter) or Cy5 (695/55 filter) settings. […]
Gel images were analyzed using Image Lab software version 6.0.1 (Bio-Rad). Quantification was done in the following manner: the area under the curve (AUC) of the bands was selected using the ‘Lane Profile’ tab and the adjusted volumes were taken. […]

C#CCOc1ccn2c(c1)nc1c2c(=O)n(CCC)c(=O)n1CCCNC(=O)c1ccc(S(=O)(=O)F)cc1 [compound 9, 4-((3-(2,4-Dioxo-8-(prop-2-yn-1-yloxy)-3-propyl-3,4-dihydropyrido[2,1-f]purin-1(2H)-yl)propyl)carbamoyl)benzenesulfonyl fluoride]
integrated TAMRA fluorescence intensity (hA3AR [1]): significant increase in intensity | off-target labeling on gel (hA3AR [2]): fewer other proteins labeled
